# PubChem BioAssay AID2060488 (Molecular Pharmacology Branch, DTP, NCI, 2025)
# System: 966289-007-R4-J1-PDC complex spheroid viability
# Test: Anticancer human tumor 966289-007-R4-J1-PDC patient-derived pancreatic adenocarcinoma cell line growth inhibition [GQUAD]
# Conditions: for IC50: curve of first compound; for viability, T/C: stronger effect = lower value
# Procedure, shortened: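 Viability of tumor cells grown as complex spheroids with endothelial and stromal cells, exposed to drug combinations. Top concentration at or near clinical Cmax (else 10 microM), diluted in half-log increments.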
# [1] = second compound 0.0316 µM, first compound 0.0316 µM
# [2] = second compound 0.0316 µM, first compound 0.1 µM
# [3] = second compound 0.0316 µM, first compound 0.316 µM
# [4] = second compound 0.0316 µM, first compound 1 µM
# [5] = second compound 0.0316 µM, first compound 3.16 µM
# [6] = second compound 0.0316 µM, first compound 10 µM
# [7] = second compound 0.1 µM, first compound 0.0316 µM
# [8] = second compound 0.1 µM, first compound 0.1 µM
# [9] = second compound 0.1 µM, first compound 0.316 µM
# [10] = second compound 0.1 µM, first compound 1 µM
# [11] = second compound 0.1 µM, first compound 3.16 µM
# [12] = second compound 0.1 µM, first compound 10 µM
# [13] = second compound 0.316 µM, first compound 0.0316 µM
# [14] = second compound 0.316 µM, first compound 0.1 µM
# [15] = second compound 0.316 µM, first compound 0.316 µM
# [16] = second compound 0.316 µM, first compound 1 µM
# [17] = second compound 0.316 µM, first compound 3.16 µM
# [18] = second compound 0.316 µM, first compound 10 µM
# [19] = second compound 1 µM, first compound 0.0316 µM
# [20] = second compound 1 µM, first compound 0.1 µM
# [21] = second compound 1 µM, first compound 0.316 µM
# [22] = second compound 1 µM, first compound 1 µM
# [23] = second compound 1 µM, first compound 3.16 µM
# [24] = second compound 1 µM, first compound 10 µM
# [25] = second compound 3.16 µM, first compound 0.0316 µM
# [26] = second compound 3.16 µM, first compound 0.1 µM
# [27] = second compound 3.16 µM, first compound 0.316 µM
# [28] = second compound 3.16 µM, first compound 1 µM
# [29] = second compound 3.16 µM, first compound 3.16 µM
# [30] = second compound 3.16 µM, first compound 10 µM
# [31] = second compound 10 µM, first compound 0.0316 µM
# [32] = second compound 10 µM, first compound 0.1 µM
# [33] = second compound 10 µM, first compound 0.316 µM
# [34] = second compound 10 µM, first compound 1 µM
# [35] = second compound 10 µM, first compound 3.16 µM
# [36] = second compound 10 µM, first compound 10 µM
# 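Also: spheroids exposed to the agents for seven days before readout.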
# 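For viability, T/C in this document: percent viability relative to DMSO vehicle control wells taken as 100%.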
compound,measurement,setting,value
COc1cccc2c1C(=O)c1c(O)c3c(c(O)c1C2=O)CC(O)(C(=O)CO)CC3OC1CC(N)C(O)C(C)O1 (stereo unspecified) + CN(C)c1ccc(Nc2c3ccc(NC(=O)CCN4CCCC4)cc3nc3cc(NC(=O)CCN4CCCC4)ccc23)cc1,IC50,second compound 0.0316 µM,69.2 nM
same,IC50,second compound 0.1 µM,67.1 nM
same,IC50,second compound 0.316 µM,65.1 nM
same,IC50,second compound 1 µM,66.2 nM
same,IC50,second compound 3.16 µM,65.7 nM
same,IC50,second compound 10 µM,59.6 nM
same,"viability, T/C",[1],112%
same,"viability, T/C",[2],20.7%
same,"viability, T/C",[3],3.69%
same,"viability, T/C",[4],0.82%
same,"viability, T/C",[5],0.35%
same,"viability, T/C",[6],0.92%
same,"viability, T/C",[7],108%
same,"viability, T/C",[8],19.4%
same,"viability, T/C",[9],3.8%
same,"viability, T/C",[10],0.83%
same,"viability, T/C",[11],0.26%
same,"viability, T/C",[12],0.53%
same,"viability, T/C",[13],105%
same,"viability, T/C",[14],17.7%
same,"viability, T/C",[15],3.65%
same,"viability, T/C",[16],0.88%
same,"viability, T/C",[17],0.29%
same,"viability, T/C",[18],0.67%
same,"viability, T/C",[19],101%
same,"viability, T/C",[20],21.3%
same,"viability, T/C",[21],3.85%
same,"viability, T/C",[22],0.93%
same,"viability, T/C",[23],0.27%
same,"viability, T/C",[24],0.34%
same,"viability, T/C",[25],106%
same,"viability, T/C",[26],18.1%
same,"viability, T/C",[27],3.67%
same,"viability, T/C",[28],0.97%
same,"viability, T/C",[29],0.25%
same,"viability, T/C",[30],0.67%
same,"viability, T/C",[31],97.9%
same,"viability, T/C",[32],11%
same,"viability, T/C",[33],1.38%
same,"viability, T/C",[34],0.42%
same,"viability, T/C",[35],0.24%
same,"viability, T/C",[36],0.29%
Cn1ncnc1[C@H]1c2n[nH]c(=O)c3cc(F)cc(c23)N[C@@H]1c1ccc(F)cc1 + CN(C)c1ccc(Nc2c3ccc(NC(=O)CCN4CCCC4)cc3nc3cc(NC(=O)CCN4CCCC4)ccc23)cc1,IC50,second compound 0.0316 µM,161 nM
same,IC50,second compound 0.1 µM,164 nM
same,IC50,second compound 0.316 µM,168 nM
same,IC50,second compound 1 µM,137 nM
same,IC50,second compound 3.16 µM,104 nM
same,IC50,second compound 10 µM,47.5 nM
same,"viability, T/C","second compound 0.0316 µM, first compound 0.000999 µM",107%
same,"viability, T/C","second compound 0.0316 µM, first compound 0.00316 µM",101%
same,"viability, T/C","second compound 0.0316 µM, first compound 0.00999 µM",109%
same,"viability, T/C",[1],104%
same,"viability, T/C","second compound 0.0316 µM, first compound 0.0999 µM",71.7%
same,"viability, T/C",[3],19%
same,"viability, T/C","second compound 0.1 µM, first compound 0.000999 µM",105%
same,"viability, T/C","second compound 0.1 µM, first compound 0.00316 µM",101%
same,"viability, T/C","second compound 0.1 µM, first compound 0.00999 µM",105%
same,"viability, T/C",[7],105%
same,"viability, T/C","second compound 0.1 µM, first compound 0.0999 µM",75.2%
same,"viability, T/C",[9],16.9%
same,"viability, T/C","second compound 0.316 µM, first compound 0.000999 µM",95.1%
same,"viability, T/C","second compound 0.316 µM, first compound 0.00316 µM",99.7%
same,"viability, T/C","second compound 0.316 µM, first compound 0.00999 µM",104%
same,"viability, T/C",[13],107%
same,"viability, T/C","second compound 0.316 µM, first compound 0.0999 µM",73.3%
same,"viability, T/C",[15],21.7%
same,"viability, T/C","second compound 1 µM, first compound 0.000999 µM",95.9%
same,"viability, T/C","second compound 1 µM, first compound 0.00316 µM",97.2%
same,"viability, T/C","second compound 1 µM, first compound 0.00999 µM",104%
same,"viability, T/C",[19],106%
same,"viability, T/C","second compound 1 µM, first compound 0.0999 µM",62.5%
same,"viability, T/C",[21],16.9%
same,"viability, T/C","second compound 3.16 µM, first compound 0.000999 µM",91.5%
same,"viability, T/C","second compound 3.16 µM, first compound 0.00316 µM",109%
same,"viability, T/C","second compound 3.16 µM, first compound 0.00999 µM",109%
same,"viability, T/C",[25],104%
same,"viability, T/C","second compound 3.16 µM, first compound 0.0999 µM",51.2%
same,"viability, T/C",[27],13%
same,"viability, T/C","second compound 10 µM, first compound 0.000999 µM",103%
same,"viability, T/C","second compound 10 µM, first compound 0.00316 µM",104%
same,"viability, T/C","second compound 10 µM, first compound 0.00999 µM",102%
same,"viability, T/C",[31],69.1%
same,"viability, T/C","second compound 10 µM, first compound 0.0999 µM",15%
same,"viability, T/C",[33],5.65%
Nc1ccn(C2OC(CO)C(O)C2(F)F)c(=O)n1 (stereo unspecified) + CN(C)c1ccc(Nc2c3ccc(NC(=O)CCN4CCCC4)cc3nc3cc(NC(=O)CCN4CCCC4)ccc23)cc1,IC50,second compound 0.0316 µM,< 31.6 nM
same,IC50,second compound 0.1 µM,< 31.6 nM
same,IC50,second compound 0.316 µM,< 31.6 nM
same,IC50,second compound 1 µM,< 31.6 nM
same,IC50,second compound 3.16 µM,< 31.6 nM
same,IC50,second compound 10 µM,< 31.6 nM
same,"viability, T/C",[1],14%
same,"viability, T/C",[2],1.18%
same,"viability, T/C",[3],0.88%
same,"viability, T/C",[4],0.96%
same,"viability, T/C",[5],0.85%
same,"viability, T/C",[6],0.89%
same,"viability, T/C",[7],10.8%
same,"viability, T/C",[8],2.18%
same,"viability, T/C",[9],0.86%
same,"viability, T/C",[10],1.06%
same,"viability, T/C",[11],0.89%
same,"viability, T/C",[12],1.03%
same,"viability, T/C",[13],8.99%
same,"viability, T/C",[14],1.42%
same,"viability, T/C",[15],0.99%
same,"viability, T/C",[16],0.97%
same,"viability, T/C",[17],0.84%
same,"viability, T/C",[18],0.93%
same,"viability, T/C",[19],9.78%
same,"viability, T/C",[20],1.73%
same,"viability, T/C",[21],1.22%
same,"viability, T/C",[22],1.01%
same,"viability, T/C",[23],0.89%
same,"viability, T/C",[24],0.91%
same,"viability, T/C",[25],8.33%
same,"viability, T/C",[26],1.17%
same,"viability, T/C",[27],1.01%
same,"viability, T/C",[28],0.9%
same,"viability, T/C",[29],1.5%
same,"viability, T/C",[30],0.99%
same,"viability, T/C",[31],5.04%
same,"viability, T/C",[32],1.02%
same,"viability, T/C",[33],1.04%
same,"viability, T/C",[34],0.83%
same,"viability, T/C",[35],0.85%
same,"viability, T/C",[36],0.85%
